Data: ChEMBL document CHEMBL1128919, “Synthesis and characterization of cyclic ATP-ribose: a potent mediator of calcium release” (Bioorg Med Chem Lett, 1996)

Species on record: Rattus norvegicus
Experiment: Half-maximal effective dose for inducing [Ca2+] release from rat brain microsomes
Format: functional

Compound: N=c1c2ncn3c2ncn1[C@@H]1O[C@H](COP(=O)(O)OP(=O)(O)OP(=O)(O)OC[C@H]2O[C@@H]3[C@H](O)[C@@H]2O)[C@@H](O)[C@H]1O
- ED50: 800 nM
